Experimental data from patent US20210260064A1, “POZIOTINIB COMBINATIONS WITH AN ANTI-HER1, HER2 OR HER4 ANTIBODY AND METHODS OF USE THEREOF” (Spectrum Pharmaceuticals, Inc., priority 2018, published 2021).
Read-outs that look alike come from different tables or passages of the source.

Experiments:
[1] = system: BT-474 cells; test: Combination of poziotinib with other anticancer drugs, synergy on proliferation; type: cell-based; conditions: HER2-overexpressed, ER-negative breast cancer cells
[2] = system: MBA-MB-453 cells; test: as above; type: cell-based; conditions: HER2 overexpressed trastuzumab resistant breast cancer cells; concentrations equal to or lower than the GI50 of poziotinib alone
[3] = system: HER2-positive GC; conditions: monotherapy; cited from earlier work
[4] = system: NSCLC patients having EGFR activating mutations; conditions: in vivo; cited from earlier work
[5] = system: HER2-amplified GC cells; conditions: in vitro; cited from earlier work
[6] = system: patients with HER2-positive GC; test: Phase I/II study of poziotinib combined with paclitaxel and trastuzumab: safety (TEAEs, DLT, MTD, dose adjustments); type: in vivo; conditions: for MTD of poziotinib: combined with paclitaxel and trastuzumab
Method: (§1) A prospective phase I/II study was conducted at 11 treatment centers in Korea. Patients with HER2-positive GC who previously had received one or more lines of chemotherapy were enrolled. Enrolled patients received oral poziotinib (8 mg or 12 mg) once daily for 14 days, followed by 7 days off.
(§2) Patients. […] Key exclusion criteria included: a history of hypersensitivity to drugs containing Cremophor® EL and trastuzumab; previous exposure to taxanes, and symptomatic central nervous system metastasis.
(§3) Treatment Procedures. […] DLTs were evaluated in 6 patients at each poziotinib dose level.
(§4) Safety Analyses and Efficacy. Adverse events (AEs) and TEAEs were evaluated using National Cancer Institute-Common Terminology Criteria for Adverse Events (version 4.03). DLTs were defined as grade […] non-hematologic toxicities (except for alopecia); grade ≥3 diarrhea, nausea and vomiting, despite maximal dosage of anti-diarrhea and/or anti-emetic medication (as applicable); and grade 4 neutropenia sustained for ≥7 days, grade 3-4 neutropenia with fever or infection, grade 4 thrombocytopenia and grade 3 thrombocytopenia sustained for 7 days, or with accompanying bleeding, or requiring transfusion. Left ventricular ejection fraction (LVEF) assessment was performed at baseline, on day 1 of the first 3 cycles and every 3 cycles thereafter. All patients who received at least one dose of poziotinib were included in the safety analysis. Tumor response was evaluated by CT or MRI of the thorax, abdomen and pelvis every 6 weeks using RECIST version 1.1, according to investigator assessment.
(§5) Statistical Analysis. The primary objective of phase I was to assess the safety and tolerability of poziotinib and to determine the MTD of poziotinib when combined with paclitaxel and trastuzumab. The primary objective of the phase II part was to assess the objective response rate (ORR) of poziotinib combined with paclitaxel and trastuzumab. The secondary objectives were to evaluate the safety and tolerability, progression-free survival (PFS), time to tumor progression (TTP) and duration of overall response (DOR).

[7] = system: patients with HER2-positive GC; test: Phase I/II study of poziotinib combined with paclitaxel and trastuzumab: efficacy (tumor response RECIST 1.1, survival); type: in vivo, human
Method: as §1, §2, §3, §4, §5
For phase II, it was hypothesized that an ORR <5% would be ineffective and an ORR >20% would be considered to be clinically significant. Sample size was calculated using Simon's 2-stage minimax design, with 80% power and a significance level of 5%. Of the total 27 target subjects, 13 were required in the 1st stage. If the tumor response was 0 out of 13 patients, the study was planned to be terminated early. However, if at least 1 response was observed, an additional 14 patients would be enrolled in the study.

[8] = cited from earlier work; for ORR / median PFS: monotherapy
[9] = system: MCF-7 cells; test: Combination of poziotinib with other anticancer drugs, synergy on proliferation; type: cell-based; conditions: not HER1 and HER2-overexpressed and ER-positive
[10] = system: MDA-MB-361 cells; test: as above; type: cell-based; conditions: HER2-overexpressed, ER-positive, trastuzumab resistant
[11] = system: MDA-MB-468 cells; test: as above; type: cell-based; conditions: HER2 negative, ER-negative, HER1-overexpressed triple negative breast cancer cells
[12] = system: SK-BR-3 cells; test: as above; type: cell-based; conditions: HER2-overexpressed and ER-negative
[13] = system: HER2-positive GC; conditions: in combination with chemotherapy; cited from earlier work
[14] = system: HER2-positive breast cancer; conditions: in combination with docetaxel plus trastuzumab; cited from earlier work
[15] = system: patients with HER2-positive GC; conditions: patients who failed prior fluoropyrimidine and platinum, cited from earlier work
[16] = All patients, Phase I 12 mg (5)
[17] = All patients, Phase I Total (12)
[18] = All patients, Phase II RD: 8 mg (32)
[19] = All patients, Total population Total (44)
[20] = Trastuzumab-naïve patients, Phase I 8 mg (n 3)
[21] = Trastuzumab-naïve patients, Phase I Total (n 3)
[22] = Trastuzumab-naïve patients, Phase II RD: 8 mg (n 8)
[23] = Trastuzumab-naïve patients, Total population (n 11)
[24] = Trastuzumab-pretreated Patients, Phase I 8 mg (n 4)
[25] = Trastuzumab-pretreated Patients, Phase I 12 mg (n 5)
[26] = Trastuzumab-pretreated Patients, Phase I Total (n 9)
[27] = Trastuzumab-pretreated Patients, Phase II RD: 8 mg (n 24)
[28] = Trastuzumab-pretreated Patients, Total population (n 33)

Compound: O=c1[nH]cc(F)c(=O)[nH]1 [5-FU, 5-fluorouracil]
- synergistic effect when combined with poziotinib [1]: high synergistic effect
- synergistic effect when combined with poziotinib [2]: excellent synergistic effect

Compound: N.N.[Cl][Pt][Cl] [cisplatin]
- synergistic effect when combined with poziotinib [1]: high synergistic effect
- synergistic effect when combined with poziotinib [2]: excellent synergistic effect

Compound: COc1cc2ncnc(Nc3ccc(F)c(Cl)c3)c2cc1NC(=O)/C=C/CN1CCCCC1 [dacomitinib]
- ORR [3]: 7.4%
- median PFS [3]: 2.1 months

Compound: C#Cc1cccc(Nc2ncnc3cc(OCCOC)c(OCCOC)cc23)c1 [erlotinib]
- Patients observed to be resistant due to the EGFR T790M mutation [4]: about 60%

Compound: CS(=O)(=O)CCNCc1ccc(-c2ccc3ncnc(Nc4ccc(OCc5cccc(F)c5)c(Cl)c4)c3c2)o1 [lapatinib]
- anti-tumor activity of dual blockade with trastuzumab [5]: highly synergistic anti-tumor activity

Compound: CC(=O)O[C@H]1C(=O)[C@@]2(C)[C@H]([C@H](OC(=O)c3ccccc3)[C@]3(O)C[C@H](OC(=O)[C@H](O)[C@@H](NC(=O)c4ccccc4)c4ccccc4)C(C)=C1C3(C)C)[C@]1(OC(C)=O)CO[C@@H]1C[C@@H]2O [paclitaxel]
- synergistic effect when combined with poziotinib [1]: high synergistic effect
- synergistic effect when combined with poziotinib [2]: excellent synergistic effect

Compound: C=CC(=O)N1CCC(Oc2cc3c(Nc4ccc(Cl)c(Cl)c4F)ncnc3cc2OC)CC1 [poziotinib, 1-[4-[4-(3,4-dichloro-2-fluorophenylaminino)-7-methoxyquinazolin-6-yloxy]-piperidin-1-yl]prop-2-en-1-one]
- TEAEs by Maximum Severity: Grade 5 (death) ([6]; Phase I 12 mg (n = 5)): 0 n
- TEAEs leading to death ([6]; Phase I 12 mg (n = 5)): 0 n
- MTD of poziotinib ([6]; Phase I part of the current study): 8 mg/day
- MTD of poziotinib ([6]; Phase I, once daily 14 days, 7 days off): 8 mg
- AE related to poziotinib: Fatigue ([6]; human, in vivo): 0 n
- AE related to poziotinib: Myalgia ([6]; human, in vivo): 0 n
- AE related to poziotinib: Vomiting ([6]; human, in vivo): 0 n
- Left ventricular systolic dysfunction (LVSD) ([6]; human, in vivo): no grade 3 or 4 left ventricular systolic dysfunction
- TEAE ≥Grade 3: Abdominal pain ([6]; human, in vivo): 0 n
- TEAE ≥Grade 3: Mucosal inflammation ([6]; human, in vivo): 0 n
- TEAE ≥Grade 3: Pruritus ([6]; human, in vivo): 0 n
- TEAE ≥Grade 3: Rash ([6]; human, in vivo): 0 n
- TEAE ≥Grade 3: Stomatitis ([6]; human, in vivo): 0 n
- TEAEs by Maximum Severity: Grade 1 (mild) ([6]; human, in vivo): 0 n
- Overall survival, Median ([7]; All patients, Phase I 8 mg (7)): 30.6 weeks
- Progression free survival, Median ([7]; All patients, Phase I 8 mg (7)): 17.1 weeks
- Time to tumor progression, Median ([7]; All patients, Phase I 8 mg (7)): 18.2 weeks
- Overall survival, Median [7, 16]: 19.9 weeks
- Progression free survival, Median [7, 16]: 17.7 weeks
- Time to tumor progression, Median [7, 16]: 17.7 weeks
- Overall survival, Median [7, 17]: 30.6 weeks
- Progression free survival, Median [7, 17]: 17,7 weeks
- Time to tumor progression, Median [7, 17]: 17.9 weeks
- Overall survival, Median [7, 18]: 29.5 weeks
- Progression free survival, Median [7, 18]: 13.0 weeks
- Time to tumor progression, Median [7, 18]: 15.0 weeks
- Overall survival, Median [7, 19]: 29.5 weeks
- Progression free survival, Median [7, 19]: 16.0 weeks
- Time to tumor progression, Median [7, 19]: 17.1 weeks
- Best overall response: CR ([7]; Phase I 8 mg (n = 7)): 0 n
- Duration of overall response, Median ([7]; Phase I 8 mg, 2 patients): 14.5 weeks
- Best overall response: CR ([7]; Phase I 12 mg (n = 5)): 0 n
- Best overall response: unknown ([7]; Phase I 12 mg (n = 5)): 0 n
- Duration of overall response, Median ([7]; Phase I 12 mg, 2 patients): 20.4 weeks
- Duration of overall response, Median ([7]; Phase I Total): 15.0 weeks
- Best overall response: CR ([7]; Phase I Total (n = 12)): 0 n
- Patients with tumor shrinkage ([7]; Phase II): Twenty
- Duration of overall response, Median ([7]; Phase II RD: 8 mg, 7 patients): 26.8 weeks
- Overall survival, Median [7, 20]: 194.9 weeks
- Progression free survival, Median [7, 20]: 30.6 weeks
- Overall survival, Median [7, 21]: 194.9 weeks
- Progression free survival, Median [7, 21]: 30.6 weeks
- Disease control rate [7, 22]: 5 n
- Overall survival, Median [7, 22]: 42.6 weeks
- Progression free survival, Median [7, 22]: 18.7 weeks
- Overall survival, Median [7, 23]: 59.2 weeks
- Progression free survival, Median [7, 23]: 20.7 weeks
- Overall survival, Median [7, 24]: 30.6 weeks
- Progression free survival, Median [7, 24]: 15.5 weeks
- Overall survival, Median [7, 25]: 19.9 weeks
- Progression free survival, Median [7, 25]: 17.7 weeks
- Overall survival, Median [7, 26]: 21.1 weeks
- Progression free survival, Median [7, 26]: 17.7 weeks
- Overall survival, Median [7, 27]: 29.5 weeks
- Progression free survival, Median [7, 27]: 13.0 weeks
- Overall survival, Median [7, 28]: 29.5 weeks
- Progression free survival, Median [7, 28]: 15.0 weeks
- MTD of poziotinib as monotherapy ([8]; continuous dosing): 18 mg/day
- MTD of poziotinib as monotherapy ([8]; intermittent dosing (14 days on and 7 days off)): 24 mg/day
- ORR ([8]; continuous dosing schedule): 21%
- median PFS ([8]; continuous dosing schedule): 9.0 weeks
- ORR ([8]; intermittent dosing schedule): 16%
- median PFS ([8]; intermittent dosing schedule): 12.0 weeks

Compound: CCC1=C[C@@H]2CN(C1)Cc1c([nH]c3ccccc13)[C@@](C(=O)OC)(c1cc3c(cc1OC)N(C)[C@H]1[C@@](O)(C(=O)OC)[C@H](OC(C)=O)[C@]4(CC)C=CCN5CC[C@]31[C@@H]54)C2 [vinorelbine]
- synergistic effect when combined with poziotinib [9]: synergy at every concentration
- synergistic effect when combined with poziotinib [10]: synergistic effect at some concentrations
- synergistic effect when combined with poziotinib [11]: synergistic effect was observed
- synergistic effect when combined with poziotinib [12]: sufficient effect was observed to indicate synergy
- synergistic effect when combined with poziotinib [1]: synergistic effect was not observed

Compound: pertuzumab: anti-HER2 antibody used for dual blockade with trastuzumab
- Effect on OS [13]: did not extend OS
- Effect on OS [14]: significantly increased OS

Compound: trastuzumab emtansine
- ORR [15]: 20.6%
- Efficacy compared with paclitaxel ([15]; phase III): not superior to paclitaxel
